Experimental data from patent US20220202912A1, “Polypeptides in Preparation of Drugs for Treatment or Prevention of Rheumatoid Arthritis” (priority 2011, published 2022).

Test system: CIA transgenic TNF-luc mice
Assay: collagen type II-induced arthritis in transgenic TNF-luc mice (swelling, scores, weight)
Type: in vivo, BALB/c transgenic TNF-luc mice
Set-up: key to joint index score / arthritis index score: 0–4 per paw, four paws summed, max 16
Conditions: Adalimumab 8 mg/kg, mPEG-SC20k-HM-3 20 mg/kg; for right ankle swelling changes: CIA TNF-luc mice; for clinical score (Table 32, kg) / arthritis index score / clinical score: CIA chronic model
Protocol: 8 animals are randomly divided into 4 groups (n=2), a normal group, a model group, a positive drug group and a test group. On day 0, for the primary immunization, mice are hypodermically injected with 50 μL collagen emulsifier (containing CII 100 μg/ mouse) at the tail root of mice for sensitization. On day 0, initial ankle widths, initial foot palm widths and initial toe thicknesses of left and right feet of mice in each group are measured separately.
After day 21, the same dosage of emulsifier is used for second immunization at the tail root. After the symptoms such as redness and swelling of joints appear on the four toes of mice, continuous administration is performed for 15 days. The normal group and the model group are separately hypodermically injected with 0.9% normal saline (0.2 mL/20 g of body weight), once every 2 days, 7 times in total. The positive drug Adalimumab group is hypodermically injected with Adalimumab (8 mg/kg of body weight), once every 15 days, once in total. The test treatment group is hypodermically injected with mPEG-SC20k-HM-3 (20 mg/kg of body weight), once every 2 days, 7 times in total.
Every 2 days, the thickness of the ankle, the width of the foot palm and the thickness of the toes of each group of mice are measured with a vernier caliper.
Swelling degree of left ankle (cm)=swelling thickness of left ankle on day n of the experiment−measured initial thickness of left ankle.
Swelling degree of right ankle (cm)=swelling thickness of right ankle on day n of the experiment−measured initial thickness of right ankle.
The joints of the mouse paw are observed with naked eyes, and the joints are scored every 2 days from day 30. Scoring is performed in terms of level 0 to level 4, 5 levels in total. 0=no erythema or swelling; 1=slight erythema or swelling, with erythema or swelling on one of the front/hind toe joints; 2=erythema or swelling on more than one toe; 3=swelling of paw beneath the ankle or wrist joint; 4=swelling of all paws including the ankle joint. Four paws of the mice are scored separately, and the highest score is 16 points.
After the secondary inflammation appears, systemic scoring is performed every 2 days, and the scoring standards are as follows:
Hind foot: no swelling=0 point, swelling of one hind foot=1 point, swelling of two hind feet=2 points.
Front foot: no swelling=0, swelling of one front foot=1 point, swelling of two front feet=2 points.
Ears: no redness symptoms and nodules=0 point, redness symptoms or nodules of one ear=1 point, red symptoms and nodules of two ears=2 points.
Nose: no swelling=0 point, obvious swelling=1 point.
Tail: no nodule=0 point, nodules=1 point; the highest score is 8 points.

## Adalimumab [reference compound]
0 d
  left ankle swelling: 0.000 ± 0.000 cm
0 d, mean ± SD
  right ankle swelling changes: 0.000 ± 0.000 cm
  clinical score (Table 32, kg): 0.000 ± 0.000
12 d
  left ankle swelling: 0.006 ± 0.050 cm
12 d, mean ± SD
  right ankle swelling changes: 0.010 ± 0.014 cm
  clinical score (Table 32, kg): 1.050 ± 0.778
15 d
  left ankle swelling: 0.011 ± 0.072 cm
15 d, mean ± SD
  right ankle swelling changes: 0.000 ± 0.028 cm
  clinical score (Table 32, kg): 0.940 ± 1.047
18 d
  left ankle swelling: 0.021 ± 0.058 cm
18 d, mean ± SD
  right ankle swelling changes: 0.012 ± 0.011 cm
  clinical score (Table 32, kg): 0.455 ± 0.247
21 d
  left ankle swelling: 0.001 ± 0.041 cm
21 d, mean ± SD
  right ankle swelling changes: 0.007 ± 0.010 cm
  clinical score (Table 32, kg): 0.230 ± 0.523
24 d
  left ankle swelling: 0.016 ± 0.048 cm
24 d, mean ± SD
  right ankle swelling changes: 0.009 ± 0.007 cm
  clinical score (Table 32, kg): 0.550 ± 0.212
27 d
  left ankle swelling: 0.007 ± 0.049 cm
27 d, mean ± SD
  right ankle swelling changes: 0.012 ± 0.017 cm
27 d, mean
  clinical score (Table 32, kg): 1.295
30 d
  left ankle swelling: 0.012 cm
30 d, mean ± SD
  right ankle swelling changes: 0.008 ± 0.008 cm
  arthritis index score: 5.00 ± 2.83
  clinical score: 5.00 ± 1.41
30 d, mean
  clinical score (Table 32, kg): 0.975
33 d
  left ankle swelling: 0.011 ± 0.041 cm
33 d, mean ± SD
  right ankle swelling changes: 0.011 ± 0.016 cm
  arthritis index score: 8.00 ± 0.00
  clinical score: 5.00 ± 0.00
  clinical score (Table 32, kg): 1.295 ± 0.177
36 d
  left ankle swelling: 0.012 ± 0.042 cm
36 d, mean ± SD
  right ankle swelling changes: 0.017 ± 0.007 cm
  arthritis index score: 8.50 ± 0.71
  clinical score: 5.00 ± 0.00
  clinical score (Table 32, kg): 2.200 ± 0.707
39 d
  left ankle swelling: 0.002 ± 0.031 cm
39 d, mean ± SD
  right ankle swelling changes: 0.007 ± 0.010 cm
  arthritis index score: 6.50 ± 0.71
  clinical score: 5.00 ± 0.00
  clinical score (Table 32, kg): 2.187 ± 0.443
42 d
  left ankle swelling: 0.003 ± 0.052 cm
42 d, mean ± SD
  right ankle swelling changes: 0.012 ± 0.017 cm
  arthritis index score: 5.50 ± 0.71
  clinical score: 5.00 ± 0.00
  clinical score (Table 32, kg): 2.655 ± 1.082
45 d
  left ankle swelling: 0.006 ± 0.051 cm
45 d, mean ± SD
  right ankle swelling changes: 0.005 ± 0.021 cm
  arthritis index score: 5.00 ± 0.00
  clinical score: 4.00 ± 0.00
  clinical score (Table 32, kg): 3.085 ± 1.478
48 d
  left ankle swelling: 0.007 ± 0.047 cm
48 d, mean ± SD
  right ankle swelling changes: 0.006 ± 0.006 cm
  arthritis index score: 5.00 ± 1.41
  clinical score: 5.00 ± 0.00
48 d, mean
  clinical score (Table 32, kg): 3.415
51 d
  left ankle swelling: 0.001 cm
51 d, mean ± SD
  right ankle swelling changes: 0.004 ± 0.006 cm
  arthritis index score: 4.50 ± 0.71
  clinical score: 4.50 ± 0.71
51 d, mean
  clinical score (Table 32, kg): 3.835
